Assay results: US7265147B2, “3,6-disubstituted azabicyclo [3.1.0]hexane derivatives useful as muscarinic receptor antagonists” (Ranbaxy Laboratories Limited, priority 2002, dated 2007)
Read-outs that look alike come from different tables or passages of the source.

Assays:
M2 muscarinic receptor = target: T1, M2 muscarinic receptor (Rattus norvegicus, UniProt P10980); assay: Radioligand binding assay, [3H]-N-methylscopolamine, rat heart membranes
T1 construct: Submandibular glands and heart were isolated and placed in ice cold homogenising buffer; from tissue; host or cells: rat heart membrane homogenate
T1 sequence (P10980 1-466): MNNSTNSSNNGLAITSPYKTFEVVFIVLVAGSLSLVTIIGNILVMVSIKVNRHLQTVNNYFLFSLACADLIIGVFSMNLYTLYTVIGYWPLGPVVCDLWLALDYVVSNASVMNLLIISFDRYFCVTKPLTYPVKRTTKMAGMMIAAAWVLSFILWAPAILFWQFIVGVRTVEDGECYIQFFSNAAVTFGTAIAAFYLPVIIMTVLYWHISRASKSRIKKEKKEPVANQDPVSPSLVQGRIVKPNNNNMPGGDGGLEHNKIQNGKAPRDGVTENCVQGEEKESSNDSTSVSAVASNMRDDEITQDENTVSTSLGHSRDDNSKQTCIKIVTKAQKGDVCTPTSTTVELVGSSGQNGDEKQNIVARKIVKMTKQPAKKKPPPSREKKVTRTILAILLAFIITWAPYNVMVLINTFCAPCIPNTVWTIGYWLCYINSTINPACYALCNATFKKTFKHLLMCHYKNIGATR

M3 muscarinic receptor [1] = target: T2, M3 muscarinic receptor (Rattus norvegicus, UniProt P08483); details: for Ki: read-out: Receptor Binding Assay Ki (nM) M3
M3 muscarinic receptor [2] = target: T2, M3 muscarinic receptor; assay: biochemical
[3] = read-out: Receptor Binding Assay Ki (nM) M2

T2 sequence (P08483 whole entry): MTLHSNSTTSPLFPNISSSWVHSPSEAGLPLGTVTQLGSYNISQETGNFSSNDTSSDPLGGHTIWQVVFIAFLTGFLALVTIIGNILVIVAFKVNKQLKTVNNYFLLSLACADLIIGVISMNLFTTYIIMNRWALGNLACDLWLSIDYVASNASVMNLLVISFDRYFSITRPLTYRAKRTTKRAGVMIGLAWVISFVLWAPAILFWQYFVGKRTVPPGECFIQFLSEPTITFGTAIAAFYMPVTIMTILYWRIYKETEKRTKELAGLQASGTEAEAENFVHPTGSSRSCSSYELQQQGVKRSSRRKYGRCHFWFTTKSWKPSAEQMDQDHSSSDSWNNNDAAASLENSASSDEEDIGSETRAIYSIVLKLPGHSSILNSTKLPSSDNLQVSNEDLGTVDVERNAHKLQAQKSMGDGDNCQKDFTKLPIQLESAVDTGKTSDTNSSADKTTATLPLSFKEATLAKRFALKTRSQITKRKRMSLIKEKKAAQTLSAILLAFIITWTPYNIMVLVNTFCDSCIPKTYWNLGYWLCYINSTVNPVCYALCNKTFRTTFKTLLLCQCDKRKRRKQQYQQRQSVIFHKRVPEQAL

Row | Compound | Ki (M2 muscarinic receptor; [3]) | Selectivity (M2/M3) (M3 muscarinic receptor [1]) | Ki (M3 muscarinic receptor [1]) | Ki (M2 muscarinic receptor) | Ki (M3 muscarinic receptor [2])
1 | 4-[(1S,5R)-2-methyl-3-azabicyclo[3.1.0]hex-3-yl]-but-2-ynyl-2-cyclohexyl-2-hydroxyphenylacetate [Compound No. 18] | 185 nM | 7.708 | 24 nM |  | 
2 | 4-[(1S,5R)-2-methyl-3-azabicyclo[3.1.0]hex-3-yl]-but-2-ynyl-2-cyclopentyl-2-hydroxyphenylacetate [Compound No. 17] | 142 nM | 3.641 | 39 nM |  | 
3 | O=C(NCC#CCN1C[C@H]2C[C@H]2C1)C(O)(c1ccccc1)C1CCCCC1 (stereo partly drawn) [Compound No. 9, N-{4-[(1R, 5S)-3-azabicyclo[3.1.0]-hex-3-yl]but-2-ynyl}-2-hydroxy-2-cyclohexyl-2-phenylacetamide] |  |  |  | 3580 nM | 
4 | O=C(NCC#CCN1C[C@H]2C[C@H]2C1)C(O)(c1ccccc1)C1CCCC1 (stereo partly drawn) [Compound No. 10, N-{4-[(1R, 5S)-3-azabicyclo[3.1.0]-hex-3-yl]but-2-ynyl}-2-hydroxy-2-cyclopentyl-2-phenylacetamide] |  | 1.28 |  | 425 nM | 0.33 µM
5 | O=C(NCC#CCN1C[C@H]2C[C@H]2C1)C(O)(c1ccccc1)c1ccccc1 [Compound No. 11, N-{4-[(1R, 5S)-3-azabicyclo[3.1.0]-hex-3-yl]but-2-ynyl}-2-hydroxy-2,2-diphenylacetamide] |  |  |  | 639 nM | 
6 | O=C(NCC#CCN1C[C@H]2C[C@H]2C1)C(O)(c1ccc(F)cc1)c1ccc(F)cc1 [Compound No. 12, N-{4-[(1R,5S)-3-azabicyclo[3.1.0]-hex-3-yl]-but-2-ynyl}2-hydroxy-bis(4-florophenyl)acetamide] |  |  |  | 736 nM | 
